Where “and” joins values, the source holds several entries; their conditions need not be identical. Equal entries are not always repeated. Toxic doses and inconclusive results are not listed. Where a SMILES comes first, the peptide text is derived from it.

For the experiment, the system named is B6C3F1 mice, B16 melanoma ip, median survival T/C. Description: NCI In Vivo Anticancer Drug Screen. Data for tumor model B16 Melanoma (intraperitoneal) in B6C3F1 mice. To be noted: endpoint: median survival time, higher = longer survival. The procedure, abridged:
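Mice bearing transplanted tumor were dosed with compound or vehicle, and survival was recorded. Activity is expressed as the treated-group measurement (T) divided by the vehicle control measurement (C).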

Setting [1] is: dose: 50.0 mg/kg/injection, schedule: Q01DX009 (ip), vehicle: saline.
Setting [2] is: dose: 100.0 mg/kg/injection, schedule: Q01DX009 (ip), vehicle: saline.
The mark [3] stands for this setting: dose: 25.0 mg/kg/injection, schedule: Q01DX009 (ip), vehicle: Klucel (hydroxypropylcellulose) (HPC).
The mark [4] stands for this setting: dose: 100.0 mg/kg/injection, schedule: Q01DX009 (ip), vehicle: saline with Tween-80.
The mark [5] stands for this setting: dose: 200.0 mg/kg/injection, schedule: Q01DX009 (ip), vehicle: saline with Tween-80.
Setting [6] is: dose: 400.0 mg/kg/injection, schedule: Q01DX009 (ip), vehicle: saline with Tween-80.
The mark [7] stands for this setting: dose: 12.5 mg/kg/injection, schedule: Q01DX009 (ip), vehicle: saline with Tween-80.
[8] abbreviates: dose: 25.0 mg/kg/injection, schedule: Q01DX009 (ip), vehicle: saline with Tween-80.
The mark [9] stands for this setting: dose: 50.0 mg/kg/injection, schedule: Q01DX009 (ip), vehicle: saline with Tween-80.
Where [10] appears, read: dose: 100.0 mg/kg/injection, schedule: Q01DX009 (ip), vehicle: Klucel (hydroxypropylcellulose) (HPC).
The mark [11] stands for this setting: dose: 200.0 mg/kg/injection, schedule: Q01DX009 (ip), vehicle: Klucel (hydroxypropylcellulose) (HPC).
The mark [12] stands for this setting: dose: 50.0 mg/kg/injection, schedule: Q01DX009 (ip), vehicle: Klucel (hydroxypropylcellulose) (HPC).

As for `O=c1[nH]c(=O)c2nc(-c3cccnc3)cnc2[nH]1`, the T/C by setting is: (dose: 12.5 mg/kg/injection, schedule: Q01DX009 (ip), vehicle: saline) 92 % of control; (dose: 25.0 mg/kg/injection, schedule: Q01DX009 (ip), vehicle: saline) 98 % of control; under setting [1], 95 % of control; under setting [2], 92 % of control.
With `CCC(=O)[O][Bi]([c]1ccccc1)[c]1ccccc1`, the T/C under setting [3] was 92 % of control.
Consider `Cc1nc2ccccc2c(C(=O)NO)[n+]1[O-]`, for which the T/C reads like this: (dose: 3.13 micrograms/kg/injection, schedule: Q01DX009 (ip), vehicle: other) 100 % of control; (dose: 6.25 micrograms/kg/injection, schedule: Q01DX009 (ip), vehicle: other) 104 % of control; (dose: 12.5 micrograms/kg/injection, schedule: Q01DX009 (ip), vehicle: other) 122 % of control; (dose: 25.0 micrograms/kg/injection, schedule: Q01DX009 (ip), vehicle: other) 110 % of control.
Regarding `CC(C(C(=O)N1CCCCC1)N1CCCCC1)N1CCCCC1` (configuration not stated), the T/C is 94 % of control under setting [4], 95 % of control under setting [5] and 103 % of control under setting [6].
As for `CCNC(=O)[B-][N+](C)(C)C`, the T/C was 93 % of control (dose: 12.5 mg/kg/injection, schedule: Q01DX009 (ip), vehicle: Klucel (hydroxypropylcellulose) (HPC)) and 95 % of control under setting [3].
Consider `COC12C(COC(N)=O)C3=C(C(=O)C(C)=C(N)C3=O)N1CC1C2N1C` (configuration not stated), for which the T/C reads like this: (dose: 1.0 mg/kg/injection, schedule: Q01DX009 (ip), vehicle: saline) 112 % of control and 99 % of control; (dose: 2.0 mg/kg/injection, schedule: Q01DX009 (ip), vehicle: saline) 88 % of control; (dose: 8.0 mg/kg/injection, schedule: Q01DX009 (ip), vehicle: saline) 111 % of control and 89 % of control.
On to `CCOC(=O)C(C)(C)Oc1ccc(Cl)cc1`, for which the T/C is 93 % of control and 105 % of control under setting [7]; 93 % of control and 102 % of control under setting [8]; 93 % of control and 101 % of control under setting [9]; 102 % of control and 104 % of control under setting [4]; 90 % of control under setting [5].
Consider `CCN(CC)CC(=O)c1ccc(O)c(O)c1`, for which the T/C under setting [4] is 92 % of control, the T/C under setting [5] is 107 % of control and the T/C under setting [6] is 117 % of control.
For the compound `O=S1(=O)C=C(c2ccccc2)C(c2ccccc2)=C1`, the T/C was 92 % of control and 98 % of control (dose: 3.12 mg/kg/injection, schedule: Q01DX009 (ip), vehicle: saline with Tween-80); 95 % of control (dose: 6.25 mg/kg/injection, schedule: Q01DX009 (ip), vehicle: saline with Tween-80); 113 % of control and 94 % of control under setting [7]; 106 % of control under setting [8]; 119 % of control under setting [9].
For the compound `CC(C)(C)OC(=O)NC(CSCc1ccccc1)C(=O)ON1C(=O)CCC1=O` (configuration not stated), the T/C was 94 % of control under setting [10] and 100 % of control under setting [11].
Consider `CCCCCCCCCCCCCCCC(=O)OCC1OC(n2ccc(N)nc2=O)C(O)C1O` (configuration not stated), for which the T/C reads like this: (dose: 3.75 mg/kg/injection, schedule: Q01DX009 (ip), vehicle: saline with Tween-80) 117 % of control; (dose: 7.5 mg/kg/injection, schedule: Q01DX009 (ip), vehicle: saline with Tween-80) 113 % of control and 121 % of control.
On to `CC1=NN(c2cccc(S(=O)(=O)O)c2)C(=O)C1N=Nc1cc(Cl)cc(S(=O)(=O)O)c1O.CC1=NN(c2cccc(S(=O)(=O)O)c2)C(=O)C1N=Nc1cc(Cl)cc(S(=O)(=O)O)c1O.[Cr]` (configuration not stated), for which the T/C was 91 % of control under setting [1] and 91 % of control under setting [2].
Consider `CC(=O)O[C@H]1C(=O)[C@@]2(C)[C@H]([C@H](OC(=O)c3ccccc3)[C@]3(O)C[C@H](OC(=O)[C@H](O)[C@@H](NC(=O)c4ccccc4)c4ccccc4)C(C)=C1C3(C)C)[C@]1(OC(C)=O)CO[C@@H]1C[C@@H]2O`, for which the T/C runs as follows: (dose: 1.25 mg/kg/injection, schedule: Q01DX008 (ip), vehicle: Klucel (hydroxypropylcellulose) (HPC)) 187 % of control; (dose: 1.25 mg/kg/injection, schedule: Q01DX009 (ip), vehicle: Klucel (hydroxypropylcellulose) (HPC)) 155 % of control and 171 % of control; (dose: 1.88 mg/kg/injection, schedule: Q01DX009 (ip), vehicle: Klucel (hydroxypropylcellulose) (HPC)) 213 % of control; (dose: 2.5 mg/kg/injection, schedule: Q01DX008 (ip), vehicle: Klucel (hydroxypropylcellulose) (HPC)) 221 % of control; (dose: 3.75 mg/kg/injection, schedule: Q01DX009 (ip), vehicle: Klucel (hydroxypropylcellulose) (HPC)) 225 % of control; (dose: 5.0 mg/kg/injection, schedule: Q01DX008 (ip), vehicle: Klucel (hydroxypropylcellulose) (HPC)) 232 % of control. Also, the T/C was 174 % of control and 186 % of control (dose: 6.25 mg/kg/injection, schedule: Q04DX003 (ip), vehicle: Klucel (hydroxypropylcellulose) (HPC)); 327 % of control (dose: 7.5 mg/kg/injection, schedule: Q01DX009 (ip), vehicle: Klucel (hydroxypropylcellulose) (HPC)); 112 % of control (dose: 10.0 mg/kg/injection, schedule: Q01DX008 (ip), vehicle: Klucel (hydroxypropylcellulose) (HPC)); 154 % of control and 175 % of control (dose: 10.0 mg/kg/injection, schedule: Q01DX009 (ip), vehicle: other); 201 % of control and 231 % of control (dose: 12.5 mg/kg/injection, schedule: Q04DX003 (ip), vehicle: Klucel (hydroxypropylcellulose) (HPC)); 92 % of control (dose: 20.0 mg/kg/injection, schedule: Q01DX008 (ip), vehicle: Klucel (hydroxypropylcellulose) (HPC)). Besides, the T/C reads like this: (dose: 25.0 mg/kg/injection, schedule: Q04DX003 (ip), vehicle: Klucel (hydroxypropylcellulose) (HPC)) 237 % of control and 254 % of control; (dose: 30.0 mg/kg/injection, schedule: Q01DX009 (ip), vehicle: Klucel (hydroxypropylcellulose) (HPC)) 89 % of control; (dose: 50.0 mg/kg/injection, schedule: Q04DX003 (ip), vehicle: Klucel (hydroxypropylcellulose) (HPC)) 169 % of control and 222 % of control; (dose: 100.0 mg/kg/injection, schedule: Q04DX003 (ip), vehicle: Klucel (hydroxypropylcellulose) (HPC)) 118 % of control.
Regarding `CC[C@]1(O)C[C@H](OC2CC(N(C)C)C(OC3CC(O)C(O)C(C)O3)C(C)O2)c2c(cc3c(c2O)C(=O)c2c(O)ccc(O)c2C3=O)[C@H]1C(=O)OC` (some centres not stated), the T/C is, setting by setting: (dose: 0.12 mg/kg/injection, schedule: Q01DX009 (ip), vehicle: Klucel (hydroxypropylcellulose) (HPC)) 106 % of control; (dose: 0.25 mg/kg/injection, schedule: Q01DX009 (ip), vehicle: Klucel (hydroxypropylcellulose) (HPC)) 115 % of control; (dose: 1.0 mg/kg/injection, schedule: Q01DX009 (ip), vehicle: Klucel (hydroxypropylcellulose) (HPC)) 177 % of control; (dose: 2.0 mg/kg/injection, schedule: Q01DX009 (ip), vehicle: Klucel (hydroxypropylcellulose) (HPC)) 191 % of control.
Consider `Oc1ccc2ccccc2c1N=Nc1ccc(Cl)cc1`, for which the T/C runs as follows: under setting [9], 115 % of control and 118 % of control; under setting [4], 114 % of control and 103 % of control; under setting [5], 92 % of control and 101 % of control; under setting [6], 109 % of control.
Consider `NC(CNc1ccc(O)cc1)C(=O)O` (configuration not stated), for which the T/C (dose: 75.0 mg/kg/injection, schedule: Q01DX009 (ip), vehicle: saline) was 111 % of control; the T/C under setting [2] is 103 % of control; the T/C (dose: 150.0 mg/kg/injection, schedule: Q01DX009 (ip), vehicle: saline) was 101 % of control.
Take `C=CCOc1cc2c(cc1C(C)c1ccc(OC)cc1)OCO2` (configuration not stated): the T/C reads like this: under setting [3], 120 % of control; under setting [12], 124 % of control and 99 % of control; under setting [10], 108 % of control; under setting [11], 115 % of control.
Take `NCC(=O)NC(Cc1ccc(O)cc1)C(=O)NCC(=O)O` (configuration not stated) (HELM PEPTIDE1{G.[O=C(C(Cc1ccc(O)cc1)N[*:1])[*:2]].G}$$$$V2.0): the T/C is 96 % of control under setting [12], 98 % of control under setting [10] and 106 % of control under setting [11].
In the case of `CN(C)N=Nc1ccc2c(c1)N(C)c1ccc(Cl)cc1S2`, the T/C by setting is: (dose: 6.25 mg/kg/injection, schedule: Q01DX009 (ip), vehicle: other) 99 % of control; (dose: 12.5 mg/kg/injection, schedule: Q01DX009 (ip), vehicle: other) 109 % of control; (dose: 25.0 mg/kg/injection, schedule: Q01DX009 (ip), vehicle: other) 114 % of control; (dose: 50.0 mg/kg/injection, schedule: Q01DX009 (ip), vehicle: other) 110 % of control; (dose: 100.0 mg/kg/injection, schedule: Q01DX009 (ip), vehicle: other) 114 % of control.
Consider `CC(C)C(NC(=O)OCC1c2ccccc2-c2ccccc21)C(=O)O` (configuration not stated), for which the T/C under setting [10] is 91 % of control and the T/C under setting [11] was 91 % of control.
